Consider nine compounds from ChEMBL document CHEMBL1142336, “Overcoming undesirable HERG potency of chemokine receptor antagonists using baseline lipophilicity relationships” (J Med Chem, 2008).

Series [1] deals with C-C chemokine receptor type 8 (Homo sapiens, UniProt P51685). Put plainly: Antagonist activity at CCR8 receptor. The series is classed as functional.
Series [2] can be described thus: Lipophilicity, log D at pH 7.4. The following applies: buffer.
Series [3] has as its target Voltage-gated inwardly rectifying potassium channel KCNH2 (Homo sapiens, UniProt Q12809). Put plainly: Displacement of [3H]dofetilide from human recombinant ERG potassium channel expressed in HEK293 cells by patch clamp method.

Chain of C-C chemokine receptor type 8 (P51685 whole entry): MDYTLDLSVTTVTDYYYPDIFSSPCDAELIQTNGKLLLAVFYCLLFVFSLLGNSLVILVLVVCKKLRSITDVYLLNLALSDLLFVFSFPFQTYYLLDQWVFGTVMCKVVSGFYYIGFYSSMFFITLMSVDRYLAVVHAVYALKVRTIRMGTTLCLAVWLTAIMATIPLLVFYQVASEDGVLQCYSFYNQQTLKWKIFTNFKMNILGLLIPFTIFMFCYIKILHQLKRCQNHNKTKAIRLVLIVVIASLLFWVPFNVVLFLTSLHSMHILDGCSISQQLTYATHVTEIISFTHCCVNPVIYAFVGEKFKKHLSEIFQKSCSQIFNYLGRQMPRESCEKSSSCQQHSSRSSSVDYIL
Chain of Voltage-gated inwardly rectifying potassium channel KCNH2 (Q12809 whole entry): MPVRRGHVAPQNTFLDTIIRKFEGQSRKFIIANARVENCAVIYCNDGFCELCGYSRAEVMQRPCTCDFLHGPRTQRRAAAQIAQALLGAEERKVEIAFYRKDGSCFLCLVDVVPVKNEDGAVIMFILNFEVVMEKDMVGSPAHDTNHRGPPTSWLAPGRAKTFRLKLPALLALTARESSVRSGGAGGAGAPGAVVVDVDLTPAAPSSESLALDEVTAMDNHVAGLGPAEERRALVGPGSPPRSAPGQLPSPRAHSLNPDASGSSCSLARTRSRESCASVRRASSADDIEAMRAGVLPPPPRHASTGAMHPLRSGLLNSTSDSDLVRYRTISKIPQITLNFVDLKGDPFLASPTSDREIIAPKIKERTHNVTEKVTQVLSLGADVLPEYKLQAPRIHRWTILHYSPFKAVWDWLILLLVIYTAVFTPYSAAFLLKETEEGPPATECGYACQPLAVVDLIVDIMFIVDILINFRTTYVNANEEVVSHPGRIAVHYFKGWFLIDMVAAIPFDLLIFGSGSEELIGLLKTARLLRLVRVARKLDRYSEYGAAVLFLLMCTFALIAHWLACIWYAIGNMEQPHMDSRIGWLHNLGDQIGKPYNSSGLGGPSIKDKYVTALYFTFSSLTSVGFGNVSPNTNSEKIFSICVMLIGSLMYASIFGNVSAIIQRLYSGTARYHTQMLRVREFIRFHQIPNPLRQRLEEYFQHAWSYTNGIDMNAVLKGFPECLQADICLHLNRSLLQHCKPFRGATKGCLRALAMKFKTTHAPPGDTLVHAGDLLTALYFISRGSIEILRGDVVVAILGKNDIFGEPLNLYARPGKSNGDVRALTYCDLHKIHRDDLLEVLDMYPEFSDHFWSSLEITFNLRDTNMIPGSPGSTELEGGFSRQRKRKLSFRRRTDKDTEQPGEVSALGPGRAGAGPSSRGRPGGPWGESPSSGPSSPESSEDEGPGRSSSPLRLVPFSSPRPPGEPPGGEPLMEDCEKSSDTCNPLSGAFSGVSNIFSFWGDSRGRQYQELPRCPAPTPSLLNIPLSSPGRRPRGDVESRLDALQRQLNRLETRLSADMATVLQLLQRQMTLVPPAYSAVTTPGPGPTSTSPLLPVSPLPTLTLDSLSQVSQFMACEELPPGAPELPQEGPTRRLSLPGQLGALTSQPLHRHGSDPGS

A word on the IC50: it is the concentration needed to halve the response being measured. A word on the logD: it is lipophilicity at a set pH, counting ionised and neutral species. Lower therefore signals a more hydrophilic compound. `O=C(c1ccncn1)N1CCC2(CCN(Cc3cccc(Oc4ccccc4)c3)CC2)CC1` showed a half-maximal inhibitory concentration (IC50) in series [1] of 27.5 nM. Besides, the logD in series [2] worked out at 2.4. On to `O=C(c1ccc(O)cc1OC[C@@H](O)CN1CCC2(CC1)Cc1cc(Cl)ccc1O2)N1C[C@H](O)CO1`, for which the IC50 in series [3] was 25.1 nM. Also, in series [2], the logD is 1.55. In the case of `COc1ccccc1Oc1ccccc1CN1CCC2(CC1)CCN(C(=O)c1cccc[n+]1[O-])CC2`, the IC50 in series [3] is 1910 nM; in series [1], 79.4 nM. In series [2], this compound yielded a logD of 0.5.

The compound `O=C(c1cc[n+]([O-])cc1)N1CCC2(CCN(Cc3cccc(Oc4ccccc4)c3)CC2)CC1` gave a 50% inhibitory concentration (IC50) in series [1] of 166 nM. This compound gave a logD in series [2] of 1.2.

`COc1ccccc1Oc1ccccc1CN1CCC2(CC1)CCN(C(=O)c1cc[n+]([O-])cc1)CC2` showed a 50% inhibitory concentration (IC50) in series [1] of 115 nM. This compound also came in with a logD in series [2] of 0.5. On the same counts, the results for `COc1ccccc1Oc1ccccc1CN1CCC2(CC1)CCN(C(=O)c1ccncc1)CC2` are 12 nM and 1.8. Consider `O=C(c1ccc(Cl)cc1)N1CCC2(CCN(Cc3ccccc3Oc3ccccc3)CC2)CC1`, for which, in series [2], the pH-dependent lipophilicity (logD) was 3.5.

`COc1ccccc1Oc1cccc(CN2CCC3(CC2)CCN(C(=O)c2ccc(Cl)cc2)CC3)c1` gave an IC50 in series [1] of 12 nM. The compound further yielded a logD in series [2] of 3.5. Consider `O=C(c1ccncc1)N1CCC2(CCN(Cc3ccccc3Oc3ccccc3)CC2)CC1`, for which the half-maximal inhibitory concentration (IC50) in series [1] was 33.1 nM.
